Measured values taken from patent publication US11707511B2, “Vaccine compositions and methods of using the same” (The Board of Supervisors of Louisiana State University and …, priority 2017, dated 2023).
Entries after “also recorded” stand apart in the source; their conditions may differ.

B1: 2D5F7: IgG2b mAb of hybridoma 2D5F7, specific for Fba peptide; VH SEQ ID NO: 68, VL SEQ ID NO: 70 (antibody, V domains shown)
VH: MERHWIFLFLLSVTAGVHSQVQLQQSAAELARPGASVKMSCKASGYTFSSYTMHWVKQRPGQGLEWIGYINPSSGYTDYNQKFKDKTTLTADKSSSTAYMQLSSLTSEDSAVYYCARLYDNYDYYAMDYWGQGTSVTVSS
VL: MDSQAQVLILLLLWVSGTCGDIVMSQSPSSLAVSAGEKVTMSCKSSQSLLNSRIRKNYLAWYQQKPGQSPKLLIYWASTRESGVPDRFTGSGSGTDFTLTISSVQADDLAVYYCKQSYNLLTFGAGTKLELK
B2: 6H1G8: IgG2b mAb of hybridoma 6H1G8, specific for Hwp1 peptide (antibody)
heavy: EVQLQQSGPELVKPGASVKISCKASGYSITGYYMHWVKQSHVKSLEWIGRINPYTGATSYTQNFKDKASLTVDKSSSTAYMELLSLKSEDSAVYYCAKGGGRSSYWYFDVWGAGTAVTVSSAKTTPPSVYPLAPGCGDTTGSSVTLGCLVKGYFPESVTVTWNSGSLSSSVHTFPALLQSGLYTMSSSVTVPSSTWPSQTVTCSVAHPASSTTVDKKLEPSGPISTINPCPPCKECHKCPAPNLEGGPSVFIFPPNIKDVLMISLTPKVTCVVVDVSEDDPDVQISWFVNNVEVHTAQTQTHREDYNSTIRVVSTLPIQHQDWMSGKEFKCKVNNKDLPSPIERTISKIKGLVRAPQVYILPPPAEQLSRKDVSLTCLVVGFNPGDISVEWTSNGHTEENYKDTAPVLDSDGSYFIYSKLNMKTSKWEKTDSFSCNVRHEGLKNYYLKKTISRSPGK
light: DIQMTQTTSSLSASLGDRVTISCSASQAISNYLNWYQQKPDGTIKLLIYYTSSLHSGVPSRFSGSGSGTDYSLTISNLEPEDIATYYCQQYSKLPWTFGGGTKLEIKRADAAPTVSIFPPSSEQLTSGGASVVCFLNNFYPKDINVKWKIDGSERQNGVLNSWTDQDSKDSTYSMSSTLTLTKDEYERHNSYTCEATHKTSTSPIVKSFNRNEC

What was measured:
C. albicans = assay: Universal double chimeric peptide vaccines, protection against candidiasis in mouse model; assay type: in vivo, Candida albicans; details: Table 11; double peptide vaccine formula feasible for human use
Text: Each chimeric peptide conjugate comprises two peptide epitopes.

C. albicans 3153A = assay: Passive transfer of mAbs or mAb cocktails i.p. before lethal i.v. challenge, mouse model of human disseminated candidiasis; assay type: in vivo, Candida albicans; details: Table 14; for Protection of adsorbed mAb: mAb removed by absorption with Candida cells before transfer; for Protection / Protection (grade word): single mAb, C. albicans
Protocol: Passive transfer of MAbs by intraperitoneal (i.p.) route. The preventive effect of peptide-specific mAbs listed in Table 3 and Table 4 in naïve mice was examined by passive transfer experiments. […] For testing, mice received 0.5 ml of each mAb or 1 ml of two mAbs in combination (0.5 ml of each) intraperitoneally. […] The negative control materials tested in mice were single mAb or DPBS. Control mice received 0.5 ml of the DPBS diluents or single mAb treatment. For each condition, 6- to 8-week-old female BALB/c mice (NCI) were given 0.5 ml of test mAb, or 1 ml two mAb cocktails or control materials intraperitoneally, followed 4 h later by 0.1 ml intravenously of defined lethal dose of yeast cells per milliliter of DPBS. Mice were divided into groups with five mice each and three independent experiments were carried out. In some experiments, mice were given the same dose of mAbs or control materials on every other day post-challenge for two weeks, as compared to the protective efficacy of mAb in combinations. All mice were sacrificed on day 50. For animal groups that were challenged non-albicans candida species, determined optimal challenge doses were applied for each candida strain.
The hybridoma clones that produce the universal peptide specific mAbs listed above were generated from mice vaccinated with peptide-pulsed dendritic cell (DC) preparation as described previously (6). The isotype of mAb was determined with a Mouse Monoclonal Antibody Isotyping Kit (Pierce, USA). […] In detail, BALB/c mice were given an i.p dose of each mAb four hours before hematogenous challenged with a lethal dose of C. albicans3153A cells. […] Importantly, passive protection was prevented by removal of the mAbs by absorption with Candida cells before transfer, which provided strong additional evidence for the protection being due to the mAb.
The three cell wall proteins were selected because of expression during human candidiasis and cell wall association, and included fructose-bisphosphate aldolase (Fba); methyltetrahydropteroyltriglutamate-homocysteine methyltransferase (Met6); hyphal wall protein-1 (Hwp1). The hybridoma clones listed at Table 5, which produce the peptide specific mAbs, were generated from mice vaccinated with peptide-pulsed dendritic cell (DC) preparation as described previously (6). The isotype of mAb was determined with a Mouse Monoclonal Antibody Isotyping Kit (Pierce, USA). […] Importantly, passive protection was prevented by removal of the mAbs by absorption with Candida cells before transfer, which provided strong additional evidence for the protection being due to the mAb).
The preventive effect of each universal peptide-specific mAb was examined by passive transfer experiments. […] For testing, 5 mice of each tested group received 0.5 ml of each mAb intraperitoneally. The negative control materials tested in mice were mAbs absorbed with C. albicans yeast cells (3153A) and DPBS. Control mice received 0.5 ml of the DPBS diluents or adsorbed mAb solution. For each condition, 6- to 8-week-old female BALB/c mice (NCI) were given 0.5 ml of test mAb, or control materials intraperitoneally, followed 4 h later by 0.1 ml intravenously of a suspension containing lethal dose of Candida cells per milliliter of DPBS. Mice were divided into groups with five mice each and three independent experiments were carried out. We have developed neutropenic murine models of disseminated infection by C. glabrata, C. tropicalis and C. parapsilosis. To induce neutropenia, naïve mice received a 200 mg/kg dose of cyclophosphamide (CY) by i.p. on day −3. Prolonged neutropenia were maintained for 30-50 days by giving each animal a 150 mg/kg dose of CY by i.p. every 10 days after infection.

C. auris AR-0386 = assay: Passive transfer of mAbs or two mAbs in combination in A/J mouse model of invasive C. auris infection; assay type: in vivo, Candida auris
Protocol: A. Complement protein C5-defecient A/J mice were treated with one of the five mAb or with DPBS as a vehicle control. The following day, mice were challenged with 1×10^8 C. auris cells/100 ul DPBS dose per mouse. […] B. Fungal burdens in the kidneys (top), heard (center), and brain (bottom).
Identified protective mAbs were obtained by use of standard hybridoma technique and purified by use of protein A/G. A/J mice were given an i.p. dose of either single mAb or two mAbs in combination 24 hours before hematogensous challenge with a lethal dose (2×108) of C. auris AR-0386 live cells. Mice received either 9G2F5 alone or 6H1G8 alone or 9F2G5 and 3H7E3 in combination had 40% survival rate respectively, with prolonged survival as compared to control animals that received DPBS buffer control.
Evaluation and validation of a panel of peptide-specific monoclonal antibodies (mAbs) as a passive immunization strategy protect against invasive C. auris infection in established A/J mouse model of human disease.
The monoclonal antibodies used in this experiment were: • 6H1G8 (IgG2b), α-Hwp1 (Hyphal wall protein) • 3E2G2 (IgG2b), α-Fba (Fructose bisphosphate aldolase) • 10E7E2 (IgG1), α-GPV-P3 (General peptide vaccine 3 from Phosphoglycerate kinase) • 9F2G5 (IgG2a), α-Pgk1 (Phosphoglycerate kinase) • 3H7E3 (IgG1), α-Met6 (Methyltetrahydropteroyltriglutamate)

Row | Molecule | Protection against Candidiasis in mouse model (C. albicans) | Protection against Candidiasis in mouse model (grade word) (C. albicans) | further results
1 | PADRE-GPV-M1-GPSL-GPV-P1: double peptide vaccine 1; amidation (C-terminus) and acetylation (N-terminus) (Ac-AKFVAAWTLKAAACFWVNPDCGLKTRGPSLCAILGGSKVSDKI-NH2; cysteine pairing not given here) | 60-90% | High | –
2 | RGD-TT830-844-KK-GPV-P3-KK-GPV-M1: double peptide vaccine 8; amidation (C-terminus) and acetylation (N-terminus) (Ac-RGDQYIKANSKFIGITEKKCIVIIGGGDTATVAKKKKCFWVNPDCGLKTR-NH2; cysteine pairing not given here) | 80-100% | High | –
3 | TT947-967-GPSL-GPV-M1-GPSL-GPV-P1: double peptide vaccine 3; amidation (C-terminus) and acetylation (N-terminus) (Ac-FNNFTVSFWLRVPKVSASHLEGPSLCFWVNPDCGLKTRGPSLCAILGGSKVSDKI-NH2; cysteine pairing not given here) | 40-60% | medium | –
4 | PADRE-GPV-M2-KK-GPV-P1: double peptide vaccine 10; amidation (C-terminus) and acetylation (N-terminus) (Ac-AKFVAAWTLKAAACTTTIGSFPQTKDIRKKCAILGGSKVSDKI-NH2; cysteine pairing not given here) | 20-40% | Low | –
5 | RGD-GPV-P3-KK-GPV-M2: double peptide vaccine 4; amidation (C-terminus) and acetylation (N-terminus) (Ac-RGDCIVIIGGGDTATVAKKKKCTTTIGSFPQTKDIR-NH2; cysteine pairing not given here) | 70-90% | High | –
6 | RGD-PADRE-GPV-M2-KK-GPV-P3: double peptide vaccine 11; amidation (C-terminus) and acetylation (N-terminus) (Ac-RGDAKFVAAWTLKAAACTTTIGSFPQTKDIRKKCIVIIGGGDTATVAKK-NH2; cysteine pairing not given here) | 80-100% | High | –
7 | RGD-TT947-967-KK-GPV-P3-KK-GPV-M1: double peptide vaccine 9; amidation (C-terminus) and acetylation (N-terminus) (Ac-RGDFNNFTVSFWLRVPKVSASHLEKKCIVIIGGGDTATVAKKKKCFWVNPDCGLKTR-NH2; cysteine pairing not given here) | 20-40% | Low | –
8 | TT830-844-KK-GPV-P3-KK-GPV-M2: double peptide vaccine 6; amidation (C-terminus) and acetylation (N-terminus) (Ac-QYIKANSKFIGITEKKCIVIIGGGDTATVAKKKKCTTTIGSFPQTKDIR-NH2; cysteine pairing not given here) | 40-60% | medium | –
9 | TT947-967-KK-GPV-P3-KK-GPV-M1: double peptide vaccine 7; amidation (C-terminus) and acetylation (N-terminus) (Ac-FNNFTVSFWLRVPKVSASHLEKKCIVIIGGGDTATVAKKKKCFWVNPDCGLKTR-NH2; cysteine pairing not given here) | 70-90% | High | –
10 | TT830-844-GPSL-GPV-M1-GPSL-GPV-P1: double peptide vaccine 2; amidation (C-terminus) and acetylation (N-terminus) (Ac-QYIKANSKFIGITEGPSLCFWVNPDCGLKTRGPSLCAILGGSKVSDKI-NH2; cysteine pairing not given here) | 40-60% | medium | –
11 | B1 | – | – | Protection of adsorbed mAb (C. albicans 3153A): None; Protection (C. albicans 3153A): (90-100%); Protection (grade word) (C. albicans 3153A): High
12 | B2 | – | – | Protection of adsorbed mAb (C. albicans 3153A): None; Protection (C. albicans 3153A): (70-80%); Protection (grade word) (C. albicans 3153A): High; fungal burdens in targeted organs (C. auris AR-0386; A/J mouse model, in words): lowest fungal burdens in all organs; also recorded: able to almost clear fungal burden; protection against C. auris invasive infection (C. auris AR-0386; A/J mouse model, in words): protect against C. auris invasive infection; also recorded: best protection; survival (C. auris AR-0386; FIG. 15A, A/J mice, 1×10^8 C. auris cells, experiment terminated 40 days post challenge): 50%; fungal burden in the kidneys (C. auris AR-0386; FIG. 15B, one treated mouse): Non-detectible levels of fungal burden; fungal burden in the heart and brain (C. auris AR-0386; FIG. 15B, several mice): non-detectible levels of fungal burden; survival rate (C. auris AR-0386; FIG. 16, A/J mice, mAb(s) i.p. 24 hours before lethal dose (2×108) of C. auris AR-0386): 40%
